Values after ≈ are worked out from the molar mass of the structure shown.

A short description of series [1]: Toxicity against Artemia salina after 24 hrs. As to conditions: in vivo. It counts as organism-based.
The nature of series [2]: Inhibition of sea urchin egg development after 48 hrs. As to conditions: echinoidea, sea urchin eggs.
Series [3] concerns Agrobacterium tumefaciens. Description: Inhibition of Agrobacterium tumefaciens-induced tumor formation in potato at 0.5 mg/ml by antitumor potato disk assay. It counts as functional.

The LC50 is the concentration that kills 50% of the test population. On to `C#C/C=C\CCCCCCCCCCCCCC/C=C\CC/C=C/C#CC(O)C#CCCCC/C=C\CCCCCC/C=C/C(=O)C#C` (stereo unspecified), for which the LC50 at 24 h in series [1] was 0.04 µg/mL (≈ 0.0614 µM).
Usually inhibition stands for the change of the read-out against control, counted positive when it falls. Consider `C#CC(O)/C=C/CC/C=C\CCCC/C=C\CCC#CC(O)C#C/C=C/CC/C=C\CCCCCCCCCCCCC/C=C/C(O)C#C` (stereo unspecified), for which the LC50 at 24 h in series [1] is 0.009 µg/mL (≈ 0.0135 µM). This compound had a median lethal concentration (LC50) at 48 h in series [2] of 1 µg/mL (≈ 1.5 µM). Further, the inhibition at 500 µg/mL in series [3] amounted to 15%.
In the same order, the values of `C#C[C@@H](O)/C=C/CCCCCC/C=C\CCCCC#C[C@H](O)C#C/C=C/CC/C=C\CCCCCCCCCCCCC/C=C/[C@H](O)C#C` [PETROFORMYNE 1] are 0.014 µg/mL (≈ 0.0209 µM), 10 µg/mL (≈ 14.9 µM) and 35%.
Consider `C#CCCCCCCCCCCCCCCCC/C=C\CC/C=C/C#CC(O)C#CCCCC/C=C\CCCCCC/C=C/C(=O)C#C` (stereo unspecified) [PETROFORMYNE 6], for which the LC50 at 24 h in series [1] amounted to 0.12 µg/mL (≈ 0.184 µM).
On to `C#CCCCCCCCCCCCCCCCC/C=C\CC/C=C/C#C[C@@H](O)C#CCCCC/C=C\CCCCCC/C=C/[C@H](O)C#C` [PETROFORMYNE 3], for which the median lethal concentration (LC50) at 24 h in series [1] amounted to 0.003 µg/mL (≈ 0.00458 µM). This compound also had an LC50 at 48 h in series [2] of 10 µg/mL (≈ 15.3 µM). In series [3], at 500 µg/mL the inhibition was 49%.
`C#C/C=C\CCCCCCCCCCCCCC/C=C\CC/C=C/C#CC(O)C#CCCCC/C=C\CCCCCC/C=C/C(O)C#C` (stereo unspecified) yielded an LC50 at 24 h in series [1] of 0.0075 µg/mL (≈ 0.0115 µM). In series [2], this compound gave an LC50 at 48 h of 50 µg/mL (≈ 76.6 µM). The same compound came in with an inhibition at 500 µg/mL in series [3] of 43%.
In turn, `C#CC(O)/C=C/CCCCCCCCCCCCCCCCCCCCCCCCCCCCCCCCCCC/C=C\C#CC(=O)OC` (stereo unspecified) [PETROFORMYNE B] yielded a 50% lethal concentration (LC50) at 24 h in series [1] of 0.0025 µg/mL (≈ 0.00367 µM).
Same read-out and setting: the value for `C#CC(O)/C=C/CCCCCCCCCCCCCCCCCCCCCCCCCCCCCCCCC/C=C\C#CC(=O)OC` (stereo unspecified) was 0.002 µg/mL (≈ 0.00306 µM).

Source of the values: ChEMBL document CHEMBL1151145, “Minor Bioactive Polyacetylenes from Petrosia ficiformis” (J Nat Prod, 1990).
